Consider 23 compounds from patent publication US8299048B2, “Hexahydrocyclopentyl[f]indazole sulfonamides and derivatives thereof as selective glucocorticoid receptor modulators” (Merck Sharp & Dohme Corp., priority 2008, dated 2012).

For orientation: Ki means the equilibrium dissociation constant of an inhibitor or competing ligand from its target.

This assay deals with T1, glucocorticoid receptor (Homo sapiens, UniProt P04150).
T1 construct: endogenous in cells
T1 sequence (P04150 1-777): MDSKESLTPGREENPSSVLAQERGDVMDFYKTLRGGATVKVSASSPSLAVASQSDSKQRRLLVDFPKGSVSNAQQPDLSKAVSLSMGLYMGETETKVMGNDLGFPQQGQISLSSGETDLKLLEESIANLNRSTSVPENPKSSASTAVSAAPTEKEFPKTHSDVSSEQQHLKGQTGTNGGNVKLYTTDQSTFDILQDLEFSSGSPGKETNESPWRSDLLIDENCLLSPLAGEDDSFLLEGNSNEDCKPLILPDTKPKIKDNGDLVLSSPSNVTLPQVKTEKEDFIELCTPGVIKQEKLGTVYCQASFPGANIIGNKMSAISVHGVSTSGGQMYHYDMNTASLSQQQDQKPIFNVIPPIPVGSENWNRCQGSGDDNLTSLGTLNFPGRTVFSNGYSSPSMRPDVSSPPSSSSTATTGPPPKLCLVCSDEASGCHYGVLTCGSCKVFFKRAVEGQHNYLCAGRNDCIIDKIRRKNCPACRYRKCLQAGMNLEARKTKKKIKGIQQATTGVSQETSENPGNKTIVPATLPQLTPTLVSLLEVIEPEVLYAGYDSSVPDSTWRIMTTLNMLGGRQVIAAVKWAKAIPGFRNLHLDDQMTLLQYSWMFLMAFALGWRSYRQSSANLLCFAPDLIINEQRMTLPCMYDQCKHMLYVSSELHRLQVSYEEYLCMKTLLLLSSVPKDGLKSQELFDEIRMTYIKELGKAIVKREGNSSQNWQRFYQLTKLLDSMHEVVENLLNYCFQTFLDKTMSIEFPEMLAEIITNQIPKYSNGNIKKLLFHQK
In words: Ligand binding assay (GR BIND). The method, boiled down:
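Displacement of tritiated dexamethasone (6 nM trace solution) from receptor in cell supernatant was measured after overnight incubation at 4 °C in molybdate-containing TEGM, pH 7.2, 2% ethanol. Hydroxylapatite pulled down the receptor–ligand complex for filter washing and scintillation counting, with dexamethasone as reference.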

Each structure is given as a SMILES string.

In turn, `Cc1oncc1S(=O)(=O)N(CCO)C[C@H]1CCC2=Cc3c(cnn3-c3ccc(F)cc3)C[C@@]21C` [Example 56, N-{[(4αR,5S)-1-(4-fluorophenyl)-4α-methyl-1,4,4α,5,6,7-hexahydrocyclopenta[f]indazol-5-yl]methyl}-N-(2-hydroxyethyl)-5-methylisoxazole-4-sulfonamide] gave a Ki of 4.6 nM. In turn, `C[C@]12Cc3cnn(-c4ccc(F)cc4)c3C=C1CC[C@@H]2CN(CCO)S(=O)(=O)c1cc(Cl)c(Cl)s1` [Example 58, 4,5-dichloro-N-{[(4αR,5S)-1-(4-fluorophenyl)-4α-methyl-1,4,4α,5,6,7-hexahydrocyclopenta[f]indazol-5-yl]methyl}-N-(2-hydroxyethyl)thiophene-2-sulfonamide] registered a Ki of 2.3 nM. Compound `C[C@]12Cc3cnn(-c4ccc(F)cc4)c3C=C1CC[C@@H]2CN(CCO)S(=O)(=O)c1ccc(F)c(F)c1` [Example 59] returned a Ki of 2.6 nM. In the case of `C[C@]12Cc3cnn(-c4ccc(F)cc4)c3C=C1CC[C@@H]2CN(CCO)S(=O)(=O)c1ccc(C#N)cc1Cl` [Example 60, 2-chloro-4-cyano-N-{[(4αR,5S)-1-(4-fluorophenyl)-4α-methyl-1,4,4α,5,6,7-hexahydrocyclopenta[f]indazol-5-yl]methyl}-N-(2-hydroxyethyl)benezenesulfonamide], the Ki was determined as 4.4 nM. For `C[C@]12Cc3cnn(-c4ccc(F)cc4)c3C=C1CC[C@@H]2CN(CCO)S(=O)(=O)c1cccc(Cl)c1Cl` [Example 61, 2,3-dichloro-N-{[(4αR,5S)-1-(4-fluorophenyl)-4α-methyl-1,4,4α,5,6,7-hexahydrocyclopenta[f]indazol-5-yl]methyl}-N-(2-hydroxyethyl)benezenesulfonamide] the value was 2.5 nM; for `C[C@]12Cc3cnn(-c4ccc(F)cc4)c3C=C1CC[C@@H]2CNS(=O)(=O)Cc1cccnc1` [Example 169, N-{[(4αR,5S)-1-(4-fluorophenyl)-4α-methyl-1,4,4α,5,6,7-hexahydrocyclopenta[f]indazol-5-yl]methyl}-1-pyridin-3-ylmethanesulfonamide], 20.9 nM. Then `Cc1noc(C)c1S(=O)(=O)N(CC1CCCO1)C[C@H]1CCC2=Cc3c(cnn3-c3ccc(F)cc3)C[C@@]21C` (stereo partly drawn) [Example 170, N-{[(4αR,5S)-1-(4-fluorophenyl)-4α-methyl-1,4,4α,5,6,7-hexahydrocyclopenta[f]indazol-5-yl]methyl}-3,5-dimethyl-N-(tetrahydrofuran-2-ylmethyl)isoxazole-4-sulfonamide], with 2.6 nM. On to `CCS(=O)(=O)N(CCOC)C[C@H]1CCC2=Cc3c(cnn3-c3ccc(F)cc3)C[C@@]21C` [Example 171, N-{[(4αR,5S)-1-(4-fluorophenyl)-4α-methyl-1,4,4α,5,6,7-hexahydrocyclopenta[f]indazol-5-yl]methyl}-N-(2-methoxyethyl)ethanesulfonamide], for which the Ki is 7 nM. In turn, `COCCN(C[C@H]1CCC2=Cc3c(cnn3-c3ccc(F)cc3)C[C@@]21C)S(=O)(=O)c1cn(C)nc1C(F)(F)F` [Example 172, N-{[(4αR,5S)-1-(4-fluorophenyl)-4α-methyl-1,4,4α,5,6,7-hexahydrocyclopenta[f]indazol-5-yl]methyl}-N-(2-methoxyethyl)-1-methyl-3-(trifluoromethyl)-1H-pyrazole-4-sulfonamide] came in with a Ki of 0.6 nM. `COCCN(C[C@H]1CCC2=Cc3c(cnn3-c3ccc(F)cc3)C[C@@]21C)S(=O)(=O)c1c(C)noc1C` [Example 173, N-{[(4αR,5S)-1-(4-fluorophenyl)-4α-methyl-1,4,4α,5,6,7-hexahydrocyclopenta[f]indazol-5-yl]methyl}-N-(2-methoxyethyl)-3,5-dimethylisoxazole-4-sulfonamide] showed a Ki of 1.3 nM. Then `CCS(=O)(=O)N(CC1CCCO1)C[C@H]1CCC2=Cc3c(cnn3-c3ccc(F)cc3)C[C@@]21C` (stereo partly drawn) [Example 174, N-{[(4αR,5S)-1-(4-fluorophenyl)-4α-methyl-1,4,4α,5,6,7-hexahydrocyclopenta[f]indazol-5-yl]methyl}-N-(tetrahydrofuran-2-ylmethyl)ethanesulfonamide], with 3.4 nM; and `Cn1cc(S(=O)(=O)N(CC2CCCO2)C[C@H]2CCC3=Cc4c(cnn4-c4ccc(F)cc4)C[C@@]32C)c(C(F)(F)F)n1` (stereo partly drawn) [Example 175, N-{[(4αR,5S)-1-(4-fluorophenyl)-4α-methyl-1,4,4α,5,6,7-hexahydrocyclopenta[f]indazol-5-yl]methyl}-1-methyl-N-(tetrahydrofuran-2-ylmethyl)-3-(trifluoromethyl)-1H-pyrazole-4-sulfonamide], with 1 nM; and `Cc1noc(C)c1S(=O)(=O)N(C)C[C@H]1CCC2=Cc3c(cnn3-c3ccc(F)cc3)C[C@@]21C` [Example 176, N-{[(4αR,5S)-1-(4-fluorophenyl)-4α-methyl-1,4,4α,5,6,7-hexahydrocyclopenta[f]indazol-5-yl]methyl}-N,3,5-trimethylisoxazole-4-sulfonamide], with 1.3 nM. In the case of `CN(C[C@H]1CCC2=Cc3c(cnn3-c3ccc(F)cc3)C[C@@]21C)S(=O)(=O)CC(F)(F)F` [Example 177, 2,2,2-trifluoro-N-{[(4αR,5S)-1-(4-fluorophenyl)-4α-methyl-1,4,4α,5,6,7-hexahydrocyclopenta[f]indazol-5-yl]methyl}-N-methylethanesulfonamide], the Ki stood at 1.6 nM. For `CCN(C[C@H]1CCC2=Cc3c(cnn3-c3ccc(F)cc3)C[C@@]21C)S(=O)(=O)c1c(C)noc1C` [Example 178, N-ethyl-N-{[(4αR,5S)-1-(4-fluorophenyl)-4α-methyl-1,4,4α,5,6,7-hexahydrocyclopenta[f]indazol-5-yl]methyl}-3,5-dimethylisoxazole-4-sulfonamide] the value was 1.2 nM; for `CCN(C[C@H]1CCC2=Cc3c(cnn3-c3ccc(F)cc3)C[C@@]21C)S(=O)(=O)CC(F)(F)F` [Example 179, N-ethyl-2,2,2-trifluoro-N-{[(4αR,5S)-1-(4-fluorophenyl)-4α-methyl-1,4,4α,5,6,7-hexahydrocyclopenta[f]indazol-5-yl]methyl}ethanesulfonamide], 1.2 nM; for `COC(=O)c1ccccc1CS(=O)(=O)N(C[C@H]1CCC2=Cc3c(cnn3-c3ccc(F)cc3)C[C@@]21C)C[C@@H](C)O` [Example 180, methyl 2-[({{[(4αR,5S)-1-(4-fluorophenyl)-4α-methyl-1,4,4α,5,6,7-hexahydrocyclopenta[f]indazol-5-yl]methyl}[(2R)-2-hydroxypropyl]amino}sulfonyl)methyl]benzoatee], 1.8 nM. In turn, `COC(=O)c1ccccc1CS(=O)(=O)N(C[C@H]1CCC2=Cc3c(cnn3-c3ccc(F)cc3)C[C@@]21C)C[C@H](C)O` [Example 181, methyl 2-[({{[(4αR,5S)-1-(4-fluorophenyl)-4α-methyl-1,4,4α,5,6,7-hexahydrocyclopenta[f]indazol-5-yl]methyl}[(2S)-2-hydroxypropyl]amino}sulfonyl)methyl]benzoate] registered a Ki of 2.8 nM. Then `C[C@@H](O)CN(C[C@H]1CCC2=Cc3c(cnn3-c3ccc(F)cc3)C[C@@]21C)S(=O)(=O)Cc1ccccc1C(=O)O` [Example 182, 2-[({{[(4αR,5S)-1-(4-fluorophenyl)-4α-methyl-1,4,4α,5,6,7-hexahydrocyclopenta[f]indazol-5-yl]methyl}[(2R)-2-hydroxypropyl]amino}sulfonyl)methyl]benzoic acid], with 93.9 nM; and `C[C@H](O)CN(C[C@H]1CCC2=Cc3c(cnn3-c3ccc(F)cc3)C[C@@]21C)S(=O)(=O)Cc1ccccc1C(=O)O` [Example 183, 2-[({{[(4αR,5S)-1-(4-fluorophenyl)-4α-methyl-1,4,4α,5,6,7-hexahydrocyclopenta[f]indazol-5-yl]methyl}[(2S)-2-hydroxypropyl]amino}sulfonyl)methyl]benzoic acid], with 64 nM. For `C[C@@H](O)CN(C[C@H]1CCC2=Cc3c(cnn3-c3ccc(F)cc3)C[C@@]21C)S(=O)(=O)Cc1ccccc1C(N)=O` [Example 184, 2-[({{[(4αR,5S)-1-(4-fluorophenyl)-4α-methyl-1,4,4α,5,6,7-hexahydrocyclopenta[f]indazol-5-yl]methyl}[(2R)-2-hydroxypropyl]amino}sulfonyl)methyl]benzamide] the value was 9.6 nM; for `C[C@H](O)CN(C[C@H]1CCC2=Cc3c(cnn3-c3ccc(F)cc3)C[C@@]21C)S(=O)(=O)Cc1ccccc1C(N)=O` [Example 185, 2-[({{[(4αR,5S)-1-(4-fluorophenyl)-4α-methyl-1,4,4α,5,6,7-hexahydrocyclopenta[f]indazol-5-yl]methyl}[(2S)-2-hydroxypropyl]amino}sulfonyl)methyl]benzamide], 13.1 nM. For `COC(=O)c1ccccc1S(=O)(=O)N(C[C@H]1CCC2=Cc3c(cnn3-c3ccc(F)cc3)C[C@@]21C)C[C@@H](C)O` [Example 186, methyl 2-({{[(4αR,5S)-1-(4-fluorophenyl)-4α-methyl-1,4,4α,5,6,7-hexahydrocyclopenta[f]indazol-5-yl]methyl}[(2R)-2-hydroxypropyl]amino}sulfonyl)benzoate] the value was 1.9 nM.
